# Assays:
# [1] = system: Escherichia coli strain ATCC25922; test: Standard microdilution MIC assay, E. coli; format: cell-based
# Method: (§1) The in vitro activity of the compounds of the present disclosure can be determined. Antimicrobial testing is typically performed to determine the minimum inhibitory concentration (MIC). Minimum inhibitory concentrations (MICs) are determined by the microdilution method in a final volume of 100 μl according to protocols outlined by The Clinical and Laboratory Standards Institute (CLSI). Performance standards for reference strains are assessed within the same experimental design to maintain quality control. See, for example, Clinical Laboratory Standards Institute: Methods for dilution antimicrobial susceptibility tests for bacteria that grow aerobically M7-A8. Approved Standard-Eighth Edition. Wayne, PA: CLSI; December 2008; and Clinical Laboratory Standards Institute: Performance Standards for Antimicrobial Susceptibility Testing M100-S20; Approved Standard-Twentieth Edition. Wayne, PA: CLSI; June 2010.
# (§2) The compounds of the present disclosure were tested for antimicrobial activity. The Compounds 1-293 were run against Escherichia coli (E co/i) strain ATCC25922 and against Staphylococcus aureus (S. aureus) 11540 strain using a standard microdilution assay to determine minimum inhibitory concentrations (MICs). […] It will be recognized by one skilled in the art that the compounds can be assessed against other bacterial organisms and that the presentation of data for activity against Escherichia coli and Staphylococcus aureus are illustrative and in no way is intended to limit the scope of the present disclosure. The compounds of the present disclosure can be assayed against a range of other microorganisms depending upon the performance activity desired to be gathered. Furthermore, the “+” and “−” representation and the selection of a cutoff value of 16 micrograms/mL is also illustrative and in no way is intended to limit the scope of the present disclosure.
# [2] = system: Staphylococcus aureus (S. aureus) 11540 strain; test: Standard microdilution MIC assay, S. aureus; format: cell-based
# Method: as §1, §2
SMILES,MIC [1] [µg/mL],MIC [2] [µg/mL]
C=C[C@@H](CCNC(=N)CF)NCc1ccc(-n2cc3cc(-c4cc(CCC[C@@H](N)C5CC5)cc(Cl)c4F)[nH]c3nc2=O)cc1 [Compound 89],≤ 16,≤ 16
CC(=N)NCC[C@@H]1CCC[C@@H](c2ccc(-n3cc4cc(-c5cc(CCC(F)(F)CN)cc(Cl)c5F)[nH]c4nc3=O)cc2)N1 [Compound 90],≤ 16,≤ 16
CC(=N)NCC[C@H](CO)NCc1ccc(-n2cc3cc(-c4cc(CCC(F)(F)CN)cc(Cl)c4F)[nH]c3nc2=O)cc1 [Compound 91],≤ 16,≤ 16
C=C[C@@H](N)CCCc1cc(Cl)c(F)c(-c2cc3cn(-c4ccc([C@H](C)NCCCNC(C)=N)c(F)c4)c(=O)nc3[nH]2)c1 [Compound 92],≤ 16,≤ 16
CC(=N)NCCCN[C@@H](C)c1ccc(-n2cc3cc(-c4cc(CCC[C@H](C)N)cc(Cl)c4F)[nH]c3nc2=O)cc1F [Compound 93],≤ 16,≤ 16
C[C@H](N)CCCc1cc(Cl)c(F)c(-c2cc3cn(-c4ccc([C@H](C)NCCCNC(=N)CF)c(F)c4)c(=O)nc3[nH]2)c1 [Compound 94],≤ 16,≤ 16
CSC[C@@H](CCNC(C)=N)NCc1ccc(-n2cc3cc(-c4cc(CCC[C@H](C)N)cc(Cl)c4F)[nH]c3nc2=O)cc1 [Compound 95],≤ 16,≤ 16
CC(=N)NCC[C@H](CO)N[C@@H](C)c1ccc(-n2cc3cc(-c4cc(CCC[C@H](C)N)cc(Cl)c4F)[nH]c3nc2=O)cc1 [Compound 96],≤ 16,≤ 16
C[C@H](N)CCCc1cc(Cl)c(F)c(-c2cc3cn(-c4ccc([C@H](C)N[C@@H](CO)CCNC(=N)CF)cc4)c(=O)nc3[nH]2)c1 [Compound 97],≤ 16,≤ 16
CC(=N)NCC[C@@H]1COC[C@@H](c2ccc(-n3cc4cc(-c5cc(CCC[C@@H](N)C6CC6)cc(Cl)c5F)[nH]c4nc3=O)cc2)N1 [Compound 98],≤ 16,≤ 16
CC(=N)NCCCN[C@@H](C)c1ccc(-n2cc3cc(-c4cc(CCC[C@@H](N)C5CC5)cc(Cl)c4F)[nH]c3nc2=O)cc1F [Compound 99],≤ 16,≤ 16
CC(=N)NCC[C@H](CO)NCc1ccc(-n2cc3cc(-c4cc(CCC[C@@H](N)CF)cc(Cl)c4F)[nH]c3nc2=O)cc1 [Compound 100],≤ 16,≤ 16
C=C[C@H](N)CCCc1cc(Cl)c(F)c(-c2cc3cn(-c4ccc(CN[C@@H](C=C)CCNC(C)=N)cc4)c(=O)nc3[nH]2)c1 [Compound 101],≤ 16,≤ 16
CC(=N)NCCCN[C@@H](C)c1ccc(-n2cc3cc(-c4cc(CCC[C@@H](N)C(F)(F)F)cc(Cl)c4F)[nH]c3nc2=O)cc1 [Compound 102],≤ 16,≤ 16
C=C[C@@H](CCNC(C)=N)NCc1ccc(-n2cc3cc(-c4cc(CCC[C@@H](N)CF)cc(Cl)c4F)[nH]c3nc2=O)cc1 [Compound 103],≤ 16,≤ 16
CC(=N)NCC[C@@H]1CCC[C@@H](c2ccc(-n3cc4cc(-c5cc(CCC[C@@H](N)CF)cc(Cl)c5F)[nH]c4nc3=O)cc2)N1 [Compound 104],≤ 16,≤ 16
C=C[C@@H](CCNC(C)=N)NCc1ccc(-n2cc3cc(-c4cc(CCC(F)(F)CN)cc(Cl)c4F)[nH]c3nc2=O)cc1 [Compound 105],≤ 16,≤ 16
CC(=N)NCCCN[C@@H](C)c1ccc(-n2cc3cc(-c4cc(CCC(F)(F)CN)cc(Cl)c4F)[nH]c3nc2=O)cc1F [Compound 106],≤ 16,≤ 16
CC(=N)NCCCN[C@@H](C)c1ccc(-n2cc3cc(-c4cc(CCC[C@@H](N)CF)cc(Cl)c4F)[nH]c3nc2=O)cc1F [Compound 107],≤ 16,≤ 16
C[C@H](N)CCCc1cc(Cl)c(F)c(-c2cc3cn(-c4ccc([C@@H]5CCC[C@@H](CCNC(=N)CF)N5C)cc4)c(=O)nc3[nH]2)c1 [Compound 108],≤ 16,≤ 16
CC(=N)NCC[C@@H]1CCC[C@@H](c2ccc(-n3cc4cc(-c5cc(CCC[C@H](C)N)cc(Cl)c5F)[nH]c4nc3=O)cc2)N1C [Compound 109],≤ 16,≤ 16
C=C[C@H](N)CCCc1cc(Cl)c(F)c(-c2cc3cn(-c4ccc([C@H](C)NCCCNC(C)=N)c(F)c4)c(=O)nc3[nH]2)c1 [Compound 111],≤ 16,≤ 16

# Source: US11999739B2, “Antimicrobials methods of making and using the same” (BIOVERSYS AG, priority 2016, dated 2024)
